The target of this assay is T1, 5-hydroxytryptamine receptor 1A (Oryctolagus cuniculus, UniProt Q9MZ11).
T1 sequence (Q9MZ11 whole entry): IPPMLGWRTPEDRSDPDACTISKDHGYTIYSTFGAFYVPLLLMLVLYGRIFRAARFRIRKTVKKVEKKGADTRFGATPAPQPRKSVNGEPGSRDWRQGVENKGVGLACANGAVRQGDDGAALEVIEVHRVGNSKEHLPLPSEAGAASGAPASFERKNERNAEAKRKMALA

SMILES strings stand for the structures. Some results are limits rather than exact numbers.

`COc1cccc(OC)c1OCCNCC1Oc2ccccc2OC1c1ccccc1` (stereo unspecified) [NSC_185453] came in with a Ki of 3 nM.

Compound `NCCc1ccc(O)c(O)c1` gave an inhibition constant (Ki) of 7800 nM.

`FC(F)(F)c1cccc(N2CCNCC2)c1` [TFMPP] gave a Ki of 130 nM.

For the compound `C=C1C(=O)O[C@H]2[C@H]1CC/C(C)=C\CC[C@@]1(C)O[C@@H]21`, the Ki is more than 10000 nM.

In turn, `CSc1ccc2c(c1)C(N1CCN(C)CC1)Cc1ccccc1S2` (stereo unspecified) [methanesulfonic acid;1-methyl-4-(3-methylsulfanyl-5,6-dihydrobenzo[b][1]benzothiepin-5-yl)piperazine] yielded a Ki of 810 nM.

Turning to `O=C1NCN(c2ccccc2)C12CCN(CC1COc3ccccc3O1)CC2` (stereo unspecified) [8-(2,3-Dihydro-benzo[1,4]dioxin-2-ylmethyl)-1-phenyl-1,3,8-triaza-spiro[4.5]decan-4-one], the inhibitory constant (Ki) is 2.4 nM.

Values taken from BindingDB's records for doi:10.1016/s0742-8413(97)00614-2 (University of Montana, 1997).
